This note sets out measurements from patent US20210189342A1, “COMPOSITIONS AND METHODS FOR MODULATING MONOCYTE AND MACROPHAGE INFLAMMATORY PHENOTYPES AND IMMUNOTHERAPY USES THEREOF” (Verseau Therapeutics, Inc., priority 2018, published 2021).

Assay type in all cases: cell-based, human
One data set deals with VSIG4. Put plainly: siRNA dose response, VSIG4 mRNA knockdown, Dual-Glo Luciferase Assay. The settings on record: Hepa1-6 + reporter plasmid, 24 hr. Here is the method:
(§1) Dose response curves for siRNAs were generated in vitro using a variety of cell lines according to Table 4.
(§2) Briefly, cells were seeded in 96-well plates and reverse transfected with siRNA, Lipofectamine® 2000 (0.5 uL/well; ThermoFisher), and, in some cases, a reporter plasmid (50 ng/well). The reporter plasmid (psiCHECK™-2, Promega) encoded both firefly luciferase and the gene of interest fused to renilla luciferase; silencing of the gene of interest results in proportional silencing of renilla luciferase but leaves firefly luciferase unaffected as an internal control.
(§3) After 24 hr incubation at 37° C., mRNA knockdown was measured using an endpoint assay. For targets without a reporter plasmid, a branched DNA (bDNA) assay was performed according to the manufacturer's instructions (QuantiGene® Singleplex Gene Expression Assay, ThermoFisher) to measure both the target gene and GAPDH (housekeeping gene) mRNA. Data are plotted as siRNA concentration (nM) vs. remaining mRNA (ratio of target gene to GAPDH, normalized to mock siRNA-transfected cells). For targets with a reporter plasmid, a Dual-Glo® Luciferase Assay was performed according to the manufacturer's instructions (Promega) to measure firefly and renilla luciferase expression. Data are plotted as siRNA concentration (nM) vs. remaining mRNA (ratio of renilla to firefly luminescence, normalized to mock siRNA-transfected cells).
(§4) For all dose response curves, a 4-parameter logistic model was applied to determine the IC50 of each siRNA sequence (Table 5 and FIG. 2). Data shown in Table 5 and FIG. 2 represent the mean of quadruplicates, +/−standard deviation.

The subject of another data set is CD74. Put plainly: siRNA dose response, CD74 mRNA knockdown, bDNA Assay. The settings on record: THP-1, 24 hr. Here is the method: as §1, §2, §3, §4
Another data set deals with CD48. Put plainly: siRNA dose response, CD48 mRNA knockdown, Dual-Glo Luciferase Assay. The settings on record: Hepa1-6 + reporter plasmid, 24 hr. On the procedure: as §1, §2, §3, §4
A further data set deals with SIGLEC7. The data set can be described thus: siRNA dose response, SIGLEC7 mRNA knockdown, Dual-Glo Luciferase Assay. The settings on record: Hepa1-6 + reporter plasmid, 24 hr. Here is the method: as §1, §2, §3, §4

With “XD-09170: siRNA targeting VSIG4 (sense 5'-aaGGcuAcAcccAaGucuudTsdT-3'; antisense 5'-AAGACUUGGGUGuAGCCUUdTsdT-3'; RNA with 2'-O-methyl and phosphorothioate modifications, case key not given here, as printed in the source, key not given here)”, the IC50 – broadly, the concentration that inhibits the measured activity by half – in the data set on VSIG4 stood at 0.024 nM.

In the case of “XD-09171: siRNA targeting VSIG4 (sense 5'-cuuucuAcGuGAcucuucudTsdT-3'; antisense 5'-AGAAGAGUcACGuAGAAAGdTsdT-3'; RNA with 2'-O-methyl and phosphorothioate modifications, case key not given here, as printed in the source, key not given here)”, the IC50 with VSIG4 was 0.023 nM.

With “XD-09223: siRNA targeting CD74 (sense 5'-ggAGcuGucGGGAaGAucAdTsdT-3'; antisense 5'-UGAUCUUCCCGAcAGCUCCdTsdT-3'; as printed in the source, key not given here)”, 0.34 nM corresponded to half-maximal inhibition with CD74 (IC50).

Consider “XD-09224: siRNA targeting CD74 (sense 5'-gcGcGAccuuAucuccAAcdTsdT-3'; antisense 5'-GUUGGAGAuAAGGUCGCGCdTsdT-3'; as printed in the source, key not given here)”, for which the IC50 in the data set on CD74 is 1.98 nM.

In the data set with CD74, “XD-09226: siRNA targeting CD74 (sense 5'-cuGGAcAAAcuGAcAGucAdTsdT-3'; antisense 5'-AGACUGUcAGUUUGUCcAGdTsdT-3'; RNA with 2'-O-methyl and phosphorothioate modifications, case key not given here, as printed in the source, key not given here)” came in with an IC50 of 0.143 nM.

In the data set with CD74, “XD-09227: siRNA targeting CD74 (sense 5'-ggAAcuGGAGGAcccGucudTsdT-3'; antisense 5'-AGACGGGUCCUCcAGUUCCdTsdT-3'; RNA with 2'-O-methyl and phosphorothioate modifications, case key not given here, as printed in the source, key not given here)” yielded an IC50 of 0.583 nM.

In the data set on CD74, “XD-09230: siRNA targeting CD74 (sense 5'-gacAAAccAAGucgGaacAdTsdT-3'; antisense 5'-UGUUCCGACUUGGUUUGUCdTsdT-3'; as printed in the source, key not given here)” displayed an IC50 of 0.196 nM.

“XD-09231: siRNA targeting CD74 (sense 5'-aaAccAAGucGGAacAGcAdTsdT-3'; antisense 5'-UGCUGUUCCGACUUGGUUUdTsdT-3'; RNA with 2'-O-methyl and phosphorothioate modifications, case key not given here, as printed in the source, key not given here)”: the half-maximal inhibitory concentration (IC50) in the data set on CD74 turned out to be 0.255 nM.

In the data set on CD74, “XD-09232: siRNA targeting CD74 (sense 5'-agcuAGAcAGAuccccGuudTsdT-3'; antisense 5'-AACGGGGAUCUGUCuAGCUdTsdT-3'; RNA with 2'-O-methyl and phosphorothioate modifications, case key not given here, as printed in the source, key not given here)” gave an IC50 of 0.747 nM.

Take “XD-09235: siRNA targeting CD74 (sense 5'-ccAAuGuuuuccAcccAuAdTsdT-3'; antisense 5'-uAUGGGUGGAAAAcAUUGGdTsdT-3'; as printed in the source, key not given here)”: the IC50 in the data set with CD74 stood at 0.245 nM.

In turn, “XD-09237: siRNA targeting CD74 (sense 5'-ccAuAAuccuuucuGccGAdTsdT-3'; antisense 5'-UCGGcAGAAAGGAUuAUGGdTsdT-3'; as printed in the source, key not given here)” yielded a 50% inhibitory concentration (IC50) in the data set on CD74 of 1.84 nM.

“XD-09239: siRNA targeting CD74 (sense 5'-ggccAuGGuucAcauuAGAdTsdT-3'; antisense 5'-UCuAAUGUGAACcAUGGCCdTsdT-3'; as printed in the source, key not given here)” gave an IC50 with CD74 of 0.07 nM.

For “XD-09726: siRNA targeting CD48 (sense 5'-acAAcuGuuAucugAAAcudTsdT-3'; antisense 5'-AGUUUcAGAuAAcAGUUGUdTsdT-3'; as printed in the source, key not given here)”, the half-maximal inhibitory concentration (IC50) with CD48 was found to be 0.017 nM.

Regarding “XD-09727: siRNA targeting CD48 (sense 5'-ccuGGcGAGucuGuAAAcudTsdT-3'; antisense 5'-AGUUuAcAGACUCGCcAGGdTsdT-3'; as printed in the source, key not given here)”, in the data set on CD48, the IC50 was determined as 0.046 nM.

As to “XD-09728: siRNA targeting CD48 (sense 5'-cuGGcGAGucuGuaAAcuAdTsdT-3'; antisense 5'-UagUUuAcAGACUCGCcAGdTsdT-3'; as printed in the source, key not given here)”, the half-inhibitory concentration (IC50) in the data set with CD48 is 0.032 nM.

As for “XD-09729: siRNA targeting CD48 (sense 5'-uguuAuAcuuGccaAGucAdTsdT-3'; antisense 5'-UGACUUGGcAAGuAuAAcAdTsdT-3'; as printed in the source, key not given here)”, the IC50 in the data set on CD48 worked out at 0.015 nM.

Take “XD-10600: siRNA targeting SIGLEC7 (sense 5'-agAGuAAccGGAAgCAuusa-3'; antisense 5'-dTAAUCCUUCCGGUUACUCUusu-3'; RNA with 2'-O-methyl and phosphorothioate modifications, case key not given here, as printed in the source, key not given here)”: the concentration for half-maximal inhibition (IC50) with SIGLEC7 was found to be 0.155 nM.

Take “XD-10601: siRNA targeting SIGLEC7 (sense 5'-gaGuAACcGGAAGgAuuasa-3'; antisense 5'-dTUAAUCCUUCCGGUuACUCusu-3'; RNA with 2'-O-methyl and phosphorothioate modifications, case key not given here, as printed in the source, key not given here)”: in the data set with SIGLEC7, the IC50 was found to be 0.127 nM.

Regarding “XD-10602: siRNA targeting SIGLEC7 (sense 5'-guAAccGGAAGGAuuAcusa-3'; antisense 5'-dTAGuAAUCCUUCCGGUuACusu-3'; RNA with 2'-O-methyl and phosphorothioate modifications, case key not given here, as printed in the source, key not given here)”, the half-inhibitory concentration (IC50) with SIGLEC7 worked out at 3.53 nM.

In the case of “XD-10603: siRNA targeting SIGLEC7 (sense 5'-cgGAAGGAuuAcucGcugsa-3'; antisense 5'-dTCAGCGAGuAAUCCUUCCGusu-3'; RNA with 2'-O-methyl and phosphorothioate modifications, case key not given here, as printed in the source, key not given here)”, the IC50 in the data set on SIGLEC7 turned out to be 0.029 nM.

In the case of “XD-10604: siRNA targeting SIGLEC7 (sense 5'-ggAAGGAuuAcucgcuGasa-3'; antisense 5'-dTUcAGCGAGuAAUCCUUCCusu-3'; RNA with 2'-O-methyl and phosphorothioate modifications, case key not given here, as printed in the source, key not given here)”, the IC50 with SIGLEC7 was determined as 0.032 nM.

Turning to “XD-10605: siRNA targeting SIGLEC7 (sense 5'-ggAuuACucGcuGacGAusa-3'; antisense 5'-dTAUCGUcAGCGAGUAAUCCusu-3'; RNA with 2'-O-methyl and phosphorothioate modifications, case key not given here, as printed in the source, key not given here)”, the half-inhibitory concentration (IC50) in the data set on SIGLEC7 was found to be 0.022 nM.

“XD-10606: siRNA targeting SIGLEC7 (sense 5'-ccGuGcAAGAGGGcAuGusa-3'; antisense 5'-dTAcAUGCCCUCUUGcACGGusu-3'; RNA with 2'-O-methyl and phosphorothioate modifications, case key not given here, as printed in the source, key not given here)”: the IC50 in the data set with SIGLEC7 was found to be 0.045 nM.

For “XD-10607: siRNA targeting SIGLEC7 (sense 5'-cgGGcAGGGAAuGauAuasa-3'; antisense 5'-dTUAuAUcAUUCCCUGCCCGusu-3'; as printed in the source, key not given here)”, in the data set with SIGLEC7, the half-maximal inhibitory concentration (IC50) was 0.039 nM.

As for “XD-10608: siRNA targeting SIGLEC7 (sense 5'-gcAGGGAAuGAuAuAAGcsa-3'; antisense 5'-dTGCUuAuAUcAUUCCCUGCusu-3'; as printed in the source, key not given here)”, the IC50 in the data set with SIGLEC7 came out at 0.056 nM.

On to “XD-10609: siRNA targeting SIGLEC7 (sense 5'-ggAAuGAuAuAAGcuGGasa-3'; antisense 5'-dTUCcAGCUuAuAUCAUUCCusu-3'; as printed in the source, key not given here)”, for which the IC50 in the data set on SIGLEC7 was 0.059 nM.
